Results from patent US20150253323A1, “METHODS AND KITS FOR HIGH THROUGHPUT SCREENING FOR COMPOUNDS TARGETING DNA-BINDING AND RNA-BINDING PROTEINS” (The Florida International University Board of Trustees, priority 2014, published 2015).
Entries after “also recorded” stand apart in the source; their conditions may differ. Where a name gives a salt, the structure may show the parent alone. Starred links: 1 amine or outer side, 2 acyl side, 3 side chain; linkers in the order of their positions; H or OH if unused. Positions of bridges follow the written chain, without caps; N, C: chain ends. Non-standard residues stand in square brackets, D forms with d. Residues, ends and D or L forms follow the SMILES beside them. Chains are numbered I, II in the order given. Actinocin(9to1) = Cc1c2oc3c(C)ccc(C(=O)[*:1])c3nc-2c(C(=O)[*:2])c(N)c1=O; NMeV = CN[C@H](C(=O)O)C(C)C; Sar = CNCC(=O)O

T1: HMGA2-FL814 complex (Mus musculus, UniProt P52927)
T1 sequence (P52927 2-108 limits assumed): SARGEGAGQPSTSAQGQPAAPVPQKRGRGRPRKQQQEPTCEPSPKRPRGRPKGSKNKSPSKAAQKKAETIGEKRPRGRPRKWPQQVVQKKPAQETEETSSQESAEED

T2: HMGA2 (high mobility group protein AT-hook 2) (mammalian, UniProt P52926 P52926:2-109)
T2 sequence: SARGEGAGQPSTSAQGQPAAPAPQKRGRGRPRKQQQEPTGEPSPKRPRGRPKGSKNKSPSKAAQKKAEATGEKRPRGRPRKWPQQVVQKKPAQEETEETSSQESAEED

B1: FL842/FL843 duplex (dsDNA)
DNA 1: CCCCCCATATTCGCGATTATTGCGC
DNA 2: GCGCAATAATCGCGAATATGGGGGG

Key:
HMGA2-FL814 interaction = experiment: PDI-ELISA for HMGA2 binding to DNA oligomer FL814; set-up: species or system mammalian; conditions: for OD450 of the PDI-ELISA in the presence of the compound: 100 nM compound, 100 nM FL814, 1 μM HMGA2, 2×SSCT, OD450 without drug 1.44; for IC50: 25° C., read-out: IC50 for inhibition of binding of HMGA2 to DNA; for inhibition of HMGA2-FL814 interactions: compound at 100 nM in 2×SSCT, FIG. 12 / Table 1; for enhancement of HMGA2 binding to FL814 (OD450): titration, 100 nM FL814, 1 μM HMGA2, FIG. 14
3T3-L1 cells = experiment: Oil Red O staining of differentiated 3T3-L1 cells (adipogenesis); format: cell-based, mouse; conditions: 3T3-L1, Oil Red O absorbance 492 nm; read-out: inhibition IC50 of neutral lipids in the differentiated cells
Experimental: Mouse pre-adipocytes (3T3-L1 cells) were a gracious gift from Dr Jun Liu at Mayo Clinic. 3T3-L1 cells were maintained in DMEM supplemented with 10% FBS, 100 U/ml penicillin, 100 μg/ml streptomycin and 5 μg/ml plasmocin. The cells were grown under normal culture conditions of 5% CO2 and humidity. Cells were maintained for a minimum of three passages in linear growth prior to differentiation. To differentiate the 3T3-L1 pre-adipocytes into adipocytes, we used the protocol previously described by Zebisch et al. (Zebisch, K., et al. (2012)). Briefly, 3T3-L1 pre-adipocytes were sub-cultured in DMEM supplemented with 5% newborn calf serum, 100 U/ml penicillin, 100 μg/ml streptomycin and 5 μg/ml plasmocin (Basal Media 1—BM1). The cells were then plated at 6×10^5 cells per dish in 35-mm dishes, 3×10^5 cells per well in a 12-well plate, 1.5×10^5 cells in a 24-well plate or 3.0×10^4 cells per well in a 96-well plate. The cells were grown to confluency with BM1 replacement every other day. Following 48 h of confluency, 3T3-L1 cells were treated with Differentiation medium 1 (DM1), which is BM1 supplemented with […] iso-butyl-methylxanthine, 0.25 μM dexamethasone, 1 μg/ml insulin and 2 μg/ml rosiglitazone. After 48 h, the medium was replaced with differentiation medium 2 (DM2); this is BM1 supplemented with 1 μg/ml insulin. On the seventh day, the cells were placed in DMEM with FBS. The cells were cultured to the date indicated in the experiments below with media changes every other day. The presence of adipogenesis was confirmed by microscopic detection of adipose bodies in the cells. For our experiments, only cultures with >80% differentiation were used.
Following differentiation and drug treatment, Oil Red O staining was used to qualitatively and quantitatively assess the level of neutral lipids in the differentiated cells. For qualitative assessment by phase microscopy, cells were washed twice in PBS and then fixed with 10% formalin for 30 min at room temperature. Oil Red O was reconstituted at 300 mg per 100 ml of isopropanol. The Oil Red O solution was prepared for staining by adding 20 ml of deionized water to 30 ml of the Oil Red O stock solution and filtered. The cells were then incubated for 5 min in 60% isopropanol. The Oil Red O working solution was then added to cells for 5 min. The monolyers were then rinsed clean with deionized water. The cells were then visualized using phase microscopy on the EVOS XL Core microscope. For quantitative assessment of adipogenesis in 96-well formats, cells were lysed in dimethylsulfoxide (DMSO) following the water wash of Oil Red O stained cells. The DMSO released the intracellular Oil Red O into the solution. The absorbance (492 nm) was measured using the BioTek Synergy H1 plate reader.

FL814 = experiment: Competition dialysis assay, free FL814; format: binding
Experimental: (§1) The competition dialysis assays were carried out according to previously published procedures (Ren, J. and Chaires, J. B. (1999)). Briefly, a volume of 0.3 ml of FL814 (3 μM) or the HMGA2-FL814 complex (3 μM) was pipeted into a separate 0.3 ml disposable dialyzer. The dialysis units were then placed into a beaker with 200 ml of 2×SSCT containing 0.73 μM of TMPyP4. The dialysis was allowed to equilibrate with continuous stirring of 72 h at room temperature (24° C.). After the dialysis, the free, bound and total concentrations of TMPyP4 were determined spectrophotometrically.

HMGA2-FL814 complex = target: T1, HMGA2-FL814 complex; experiment: Competition dialysis assay, HMGA2-FL814 complex; conditions: 3 μM complex dialyzed against 0.73 μM TMPyP4, 72 h, 2×SSCT
Experimental: as §1

[1] = target: T2, HMGA2 (high mobility group protein …); experiment: ELONA; duplex without hairpin loop; 100 nM DNA, 1 uM HMGA2; binding enhanced by TMPyP4; conditions: tags: purified as in Cui et al. 2007

Row | Molecule | OD450 of the PDI-ELISA in the presence of the compound (HMGA2-FL814 interaction) | further results
1 | Cl.NCc1ccc2ccc3cccc4ccc1c2c34 [1-Pyrenemethylamine hydrochloride, 1-pyrenemethylamine hydrochloride] | 1.36 | 
2 | Cc1c2oc3c(C)ccc(C(=O)N[C@@H]4C(=O)N[C@H](C(C)C)C(=O)N5CCC[C@H]5C(=O)N(C)CC(=O)N(C)[C@@H](C(C)C)C(=O)O[C@@H]4C)c3nc-2c(C(=O)N[C@@H]2C(=O)N[C@H](C(C)C)C(=O)N3CCC[C@H]3C(=O)N(C)CC(=O)N(C)[C@@H](C(C)C)C(=O)O[C@@H]2C)c(N)c1=O [Actinomycin D, actinomycin D] (I: T[dV]P[Sar][NMeV] / II: T[dV]P[Sar][NMeV]; ester I:1-I:C, II:1-II:C; linker I:N-II:N via Actinocin(9to1)) | 1.03 | 
3 | COc1ccc2cc3[n+](cc2c1OC)CCc1cc2c(cc1-3)OCO2 [Berberine chloride, berberine chloride] | 0.91 | 
4 | CC(=O)NCC(=O)O.CC(=O)NCC(=O)O.N=C(N)c1ccc(N=NNc2ccc(C(=N)N)cc2)cc1 [Berenil, berenil] | 0.52 | 
5 | C=C1C(=O)OC(CCCCCCCC)C1C(=O)O (centres unmarked) [C-75] |  | IC50 (3T3-L1 cells): 3700 ± 800 nM
6 | COC1C(O)CC(OC2CC(Oc3cc4cc5c(c(O)c4c(O)c3C)C(=O)[C@@H](OC3CC(OC4CC(OC6CC(C)(O)C(OC(C)=O)C(C)O6)C(O)C(C)O4)C(O)C(C)O3)[C@H]([C@H](OC)C(=O)[C@@H](O)[C@@H](C)O)C5)OC(C)C2OC(C)=O)OC1C (some centres unmarked) [Chromomycin, chromomycin] | 1.3 | 
7 | COc1cc2cc3c4cc(OC)c(OC)cc4cc[n+]3c(C)c2cc1OC.[Cl-] [Coralyne chloride, coralyne chloride] | 1.38 | 
8 | N=C(N)c1ccc(-c2cc3ccc(C(=N)N)cc3[nH]2)cc1 [DAPI] | 0.161 | IC50 (HMGA2-FL814 interaction): 60.6 ± 8.5 nM; inhibition of HMGA2-FL814 interactions (HMGA2-FL814 interaction): potently inhibit; also recorded: completely inhibit
9 | CCN1/C(=C/C=C/C=C/c2oc3ccccc3[n+]2CC)Oc2ccccc21.[I-] [DODC] | 1.3 | 
10 | Cc1c2ccncc2c(C)c2c1[nH]c1ccccc12 [Ellipticine] | 1.39 | 
11 | CN1CCN(c2ccc3[nH]c(-c4ccc5[nH]c(-c6ccc(O)cc6)nc5c4)nc3c2)CC1 [Hoechst 33258] | 0.166 | IC50 (HMGA2-FL814 interaction): 73 ± 9.6 nM; inhibition of HMGA2-FL814 interactions (HMGA2-FL814 interaction): potently inhibit; also recorded: completely inhibit
12 | CN(C)c1ccc(C(=C2C=CC(=[N+](C)C)C=C2)c2ccc([N+](C)(C)C)cc2)cc1.[Cl-].[Cl-] [Methyl Green, methyl green] | 1.06 | 
13 | CN(C)c1ccc2nc3ccc(=[N+](C)C)cc-3sc2c1 [Methylene Blue, methylene blue] | 0.93 | 
14 | O=C1c2ccc3c4ccc5c6c(ccc(c7ccc(c2c37)C(=O)N1CCN1CCCCC1)c64)C(=O)N(CCN1CCCCC1)C5=O [PIPER, N,N′-bis[2-(1-piperidino)ethyl]-3,4,9,10-perylenetetracarboxylic diimide] | 1.27 | 
15 | N=C(N)c1ccc(OCCCCCOc2ccc(C(=N)N)cc2)cc1 [Pentamidine, pentamidine isethionate salt] | 0.65 | 
16 | Nc1ccc2cc3ccc(N)cc3nc2c1 [Proflavine hemisulfate, proflavine hemisulfate] | 1.49 | 
17 | Nc1ccc2cc3ccc(N)cc3nc2c1 [Proflavine hydrochloride, proflavine hydrochloride] |  | OD450 of the PDI-ELISA in the presence of the compound (HMGA2-FL814 interaction; hydrochloride): 1.5
18 | CCN(CC)CCCC(C)Nc1c2ccc(Cl)cc2nc2ccc(OC)cc12 (centres unmarked) [Quinacrine dihydrochloride, quinacrine dihydrochloride] | 1.46 | 
19 | C[n+]1ccccc1-c1c2nc(c(-c3cccc[n+]3C)c3ccc([nH]3)c(-c3cccc[n+]3C)c3nc(c(-c4cccc[n+]4C)c4ccc1[nH]4)C=C3)C=C2.[Cl-].[Cl-].[Cl-].[Cl-] [TMPyP2] | 1.7 | enhancement of HMGA2 binding to FL814 (OD450) (HMGA2-FL814 interaction): not able to stimulate
20 | C[n+]1ccc(-c2c3nc(c(-c4cc[n+](C)cc4)c4ccc([nH]4)c(-c4cc[n+](C)cc4)c4nc(c(-c5cc[n+](C)cc5)c5ccc2[nH]5)C=C4)C=C3)cc1 [TMPyP4] | Very high | enhancement of HMGA2 binding to double stranded oligomer (FL842/FL843) without loop (HMGA2-FL814 interaction; 100 nM annealing product of FL842 and FL843, 1 μM HMGA2, FIG. 15B): able to enhance the binding; also recorded: enhancement; enhancement of HMGA2 binding to FL814 (OD450) (HMGA2-FL814 interaction): dramatically enhance; also recorded: significantly enhanced; binding to FL814 (FL814; 3 μM FL814 dialyzed against 0.73 μM TMPyP4, 72 h, 2×SSCT): tightly; binding stoichiometry to FL814 (FL814; competition dialysis, 0.73 μM TMPyP4): two molecules of TMPyP4 bind to one molecule of FL814; binding to the FL814-HMGA2 complex (HMGA2-FL814 complex): tightly
21 | CN1C(=Cc2cc[n+](C)c3ccccc23)Sc2ccccc21 [Thiazole orange, thiazole orange] | 1.83 | 
22 | COc1cccc2c1C(=O)c1c(O)c3c(c(O)c1C2=O)C[C@@](O)(C(C)=O)C[C@@H]3O[C@H]1C[C@H](NCc2ccc(CN[C@H]3C[C@H](O[C@H]4C[C@](O)(C(C)=O)Cc5c(O)c6c(c(O)c54)C(=O)c4c(OC)cccc4C6=O)O[C@@H](C)[C@H]3O)cc2)[C@H](O)[C@H](C)O1 [WP631] | 0.21 | IC50 (HMGA2-FL814 interaction): 41 ± 4.5 nM; inhibition of HMGA2-FL814 interactions (HMGA2-FL814 interaction): potently inhibit; also recorded: completely inhibit
23 | COc1cccc2c1C(=O)c1c(O)c3c(c(O)c1C2=O)C[C@@](O)(C(C)=O)C[C@@H]3O[C@H]1C[C@H](NCc2cccc(CN[C@@H]3C[C@@H](O[C@H]4C[C@](O)(C(C)=O)Cc5c(O)c6c(c(O)c54)C(=O)c4c(OC)cccc4C6=O)O[C@H](C)[C@@H]3O)c2)[C@H](O)[C@H](C)O1 [WP762] | 0.56 | IC50 (HMGA2-FL814 interaction): 115 ± 19.7 nM; inhibition of HMGA2-FL814 interactions (HMGA2-FL814 interaction): potently inhibit
24 | O=c1cc(-c2ccccc2)oc2c1ccc1ccccc12 [a-Naphthoflavone, α-naphthoflavone] | 1.91 | 
25 | O=c1cc(-c2ccccc2)oc2ccc3ccccc3c12 [b-Naphthoflavone, β-naphthoflavone] | 1.56 | 
26 | N-methyl mesoporphyrin [NMM 580] | 1.62 | 
27 | B1 |  | binding result [1]: binds
